The values below come from patent publication US20240002430A1, “METHOD FOR PRODUCING PROTEIN COMPOSITIONS” (HOFFMAN-LA ROCHE INC., priority 2020, published 2024).

The conditions of series [1]: general statement in the description, no test described; cited from earlier work.
The target of another series is T1, lipase CalB2 (Moesziomyces antarcticus, UniProt P41365).
T1 sequence (P41365 26-342): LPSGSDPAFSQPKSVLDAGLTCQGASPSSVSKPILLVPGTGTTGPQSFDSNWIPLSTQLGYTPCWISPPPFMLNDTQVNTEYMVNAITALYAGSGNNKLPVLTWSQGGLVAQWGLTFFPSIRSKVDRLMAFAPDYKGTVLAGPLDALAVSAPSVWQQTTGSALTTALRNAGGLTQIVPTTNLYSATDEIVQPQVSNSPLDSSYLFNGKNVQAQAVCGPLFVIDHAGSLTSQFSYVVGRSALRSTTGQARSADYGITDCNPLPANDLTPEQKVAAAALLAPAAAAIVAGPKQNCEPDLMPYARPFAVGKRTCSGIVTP
Briefly: Targeted LC-MS proteomics of lipase bound to bis-enol-ester functionalized magnetic beads. The format is binding. To be noted: compound C coupled to azide modified polystyrene magnetic beads; CalB2 + Herceptin mixture, over night 40° C.; after extensive washing; vs non-functionalized beads. The method, then: Test sample: Herceptin (mAb; 0.2 μg/μl in Na-Phosphate-Buffer) as control protein for the LC-MS based proteomics workflow was mixed with the lipase CalB2 (CalB2; […] in Na-Phosphate-Buffer) in a ca. 1:1 (mol/mol) ratio) as target. The above-mentioned samples were addressed with compound C (bis-enol-ester) covalently coupled to 60 μg azide modified magnetic particles (60 μl of a […] aqueous solution were prepared) (Polystyrene based azide beads; CLK-1036-1, Jena-Bioscience) which were made by click reaction and purification (see protocol experiment Example 1 and general procedure described for the Jena-Bioscience click protocol). […]
The targeted LC-MS analysis was performed using Water/Acetonitrile gradients with TFA (0.05% v(v) as buffer. The separation column was a PepSwift Monolithic Capillary Column, 200 μm×5 cm, P/N: 161409. As mass spectrometer, a Thermo LTQ FT system was used. Further experimental design for quantitative analyses followed general experimental targeted LC-MS procedures. The proteins bound to the beads were applied to the LC-MS system by injection of 1 μl of the digested sample on the analytical column. […]

On to `CCCCCCCCCCC[C@@H](C[C@@H]1OC(=O)[C@H]1CCCCCC)OC(=O)[C@H](CC(C)C)NC=O` [Orlistat], for which, in series [1], the solubility in water result is listed as “highly insoluble in water”.
`C#CCCCC(=C/OC(=O)CCCCCCCCCCC)/C=C/OC(=O)CCCCCCCCCCC` [bis-enol ester]: the “binding of model lipase CalB2 to functionalized beads (LC-MS peptide peak intensities, FIG. 6)” value at lipase CalB2 was “binds to beads functionalized with bis-enol ester even when subjected to extensive washing steps”.
